The supplement of paper PMC13380429
± gives the standard deviation of the averaged measurements.

Tests used:
Conditions in all cases: 72 h
Caco-2 [1] = assay: cell viability relative to DMSO; higher = less toxic
Calu-3 [2] = assay: as above
HepG2 [3] = assay: as above
U2OS [4] = assay: as above
Vero E6 [5] = assay: as above
Caco-2 [6] = assay: relative viability EC50 (midpoint between 100% and the lowest measured viability); higher = less toxic
Calu-3 [7] = assay: as above
HepG2 [8] = assay: as above
U2OS [9] = assay: as above
Vero E6 [10] = assay: as above
Caco-2 [11] = assay: drug sensitivity score (DSS) for viability; higher = more toxic; extreme values may be limits of the assay
Calu-3 [12] = assay: as above
HepG2 [13] = assay: as above
U2OS [14] = assay: as above
Vero E6 [15] = assay: as above

Structure (SMILES) | cell viability (Caco-2 [1]; 1 nM) [%] | cell viability (Caco-2 [1]; 10 nM) [%] | cell viability (Caco-2 [1]; 100 nM) [%] | cell viability (Caco-2 [1]; 1000 nM) [%] | cell viability (Caco-2 [1]; 10000 nM) [%] | cell viability (Calu-3 [2]; 1 nM) [%] | cell viability (Calu-3 [2]; 10 nM) [%] | cell viability (Calu-3 [2]; 100 nM) [%] | cell viability (Calu-3 [2]; 1000 nM) [%] | cell viability (Calu-3 [2]; 10000 nM) [%] | cell viability (HepG2 [3]; 1 nM) [%] | cell viability (HepG2 [3]; 10 nM) [%] | cell viability (HepG2 [3]; 100 nM) [%] | cell viability (HepG2 [3]; 1000 nM) [%] | cell viability (HepG2 [3]; 10000 nM) [%] | cell viability (U2OS [4]; 1 nM) [%] | cell viability (U2OS [4]; 10 nM) [%] | cell viability (U2OS [4]; 100 nM) [%] | cell viability (U2OS [4]; 1000 nM) [%] | cell viability (U2OS [4]; 10000 nM) [%] | cell viability (Vero E6 [5]; 1 nM) [%] | cell viability (Vero E6 [5]; 10 nM) [%] | cell viability (Vero E6 [5]; 100 nM) [%] | cell viability (Vero E6 [5]; 1000 nM) [%] | cell viability (Vero E6 [5]; 10000 nM) [%] | relative viability EC50 (Caco-2 [6]) [µM] | relative viability EC50 (Calu-3 [7]) [µM] | relative viability EC50 (HepG2 [8]) [µM] | relative viability EC50 (U2OS [9]) [µM] | relative viability EC50 (Vero E6 [10]) [µM] | drug sensitivity score (Caco-2 [11]) | drug sensitivity score (Calu-3 [12]) | drug sensitivity score (HepG2 [13]) | drug sensitivity score (U2OS [14]) | drug sensitivity score (Vero E6 [15])
CC(C)(C)NCC(O)COc1cccc2[nH]c(C#N)cc12 (stereo not given) [cyanopindolol] | 103 | 103 | 95.8 | 99.7 | 97.5 | 85.4 | 105 | 100 | 96.8 | 92.8 | 93 | 95.7 | 89.6 | 102 | 95.8 | 100 | 98.8 | 96.7 | 94.7 | 101 | 102 | 103 | 100 | 104 | 97 | > 10 | > 10 | > 10 | > 10 | > 10 | 0 | 0 | 0 | 0 | 0
NC(N)=Nc1nc(CSCC/C(N)=N/S(N)(=O)=O)cs1 [famotidine] | 107 | 106 | 108 | 97.2 | 109 | 107 | 91.5 | 113 | 105 | 97.7 | 106 | 102 | 90.4 | 97.5 | 93.4 | 94.3 | 95.4 | 99.6 | 95 | 99.4 | 113 | 106 | 89.2 | 101 | 94.3 | > 10 | > 10 | > 10 | > 10 | > 10 | 0 | 0 | 0 | 0 | 0
CCCCC[C@H](O)/C=C/[C@H]1[C@H](O)CC(=O)[C@@H]1CCCCCCC(=O)O [alprostadil] | 96.8 | 99 | 96.7 | 98.6 | 97.8 | 99 | 105 | 88.2 | 98.7 | 98.1 | 91.4 | 101 | 98.6 | 99.4 | 90.5 | 104 | 102 | 100 | 96.7 | 98.7 | 101 | 101 | 98.7 | 101 | 96.1 | > 10 | > 10 | > 10 | > 10 | > 10 | 0 | 0 | 0 | 0 | 0
O=[N+]([O-])c1cccc2cn[nH]c12 [7-nitroindazole] | 100 | 94.4 | 97.1 | 106 | 97.8 | 102 | 101 | 99.4 | 97.6 | 93.4 | 102 | 96.3 | 88.2 | 99.2 | 98.1 | 99.7 | 102 | 99.8 | 104 | 97.9 | 103 | 96.5 | 99.6 | 98.7 | 98.7 | > 10 | > 10 | > 10 | > 10 | > 10 | 0 | 0 | 0 | 0 | 0
Cc1ccc(S(=O)(=O)NCc2ccccc2)cc1 [BTS] | 95.1 | 99.3 | 101 | 90 | 99.9 | 98.1 | 100 | 106 | 102 | 112 | 102 | 110 | 95.3 | 110 | 107 | 96.7 | 97.4 | 107 | 98 | 102 | 104 | 101 | 91.7 | 95.9 | 93.4 | > 10 | > 10 | > 10 | > 10 | > 10 | 0 | 0 | 0 | 0 | 0
O=C1C(O)=C(O)C(=O)C(O)=C1O [tetroquinone] | 103 | 99.6 | 96.9 | 104 | 97.6 | 97.3 | 98.2 | 98.1 | 87.1 | 93.3 | 97.9 | 100 | 101 | 106 | 91.7 | 99.9 | 99.5 | 97.8 | 99.8 | 104 | 98.3 | 100 | 97.6 | 96.7 | 95.1 | > 10 | > 10 | > 10 | > 10 | > 10 | 0 | 0 | 0 | 0 | 0
CCOc1ccc(-n2c([C@@H](C)N(Cc3cccnc3)C(=O)Cc3ccc(OC(F)(F)F)cc3)nc3ncccc3c2=O)cc1 (racemic) [AMG-487-(+/-)] | 94 ± 2.5 | 98.2 ± 13 | 98.5 ± 2 | 101 ± 6 | 94.5 ± 8.4 | 100.8 ± 0.57 | 99.7 ± 0.99 | 93.3 ± 2.7 | 92.1 ± 3.4 | 98.5 ± 6 | 99.7 ± 1.1 | 98 ± 11 | 97.5 ± 8.5 | 95.2 ± 4.5 | 94 ± 13 | 100.5 ± 0.35 | 101 ± 4 | 97.3 ± 1.7 | 98.6 ± 0.85 | 99.6 ± 1.7 | 97.8 ± 3.2 | 102 ± 3.9 | 101 ± 2.5 | 97.8 ± 0.57 | 102 ± 2.5 | > 10 | > 10 | > 10 | > 10 | > 10 | 0 | 0.05 ± 0.071 | 0.45 ± 0.64 | 0 | 0
CC(=O)Nc1nnc(S(N)(=O)=O)s1 [acetazolamide] | 97.5 | 97.7 | 95.2 | 96.6 | 92.4 | 103 | 104 | 97.5 | 99.2 | 94.3 | 105 | 103 | 105 | 105 | 98 | 103 | 101 | 95.7 | 104 | 97.2 | 102 | 101 | 97.9 | 89.9 | 99.9 | > 10 | > 10 | > 10 | > 10 | > 10 | 0 | 0 | 0 | 0 | 0
CN1c2c([nH]c(N)nc2=O)NC[C@@H]1CNc1ccc(C(=O)N[C@@H](CCC(=O)O)C(=O)O)cc1 [metafolin] | 95.4 | 90.3 | 85.3 | 98.1 | 102 | 91.1 | 106 | 105 | 96.5 | 96.9 | 102 | 89.8 | 105 | 110 | 108 | 94.9 | 100 | 92.5 | 105 | 101 | 96.1 | 91.6 | 96.3 | 83.2 | 104 | > 10 | > 10 | > 10 | > 10 | > 10 | 0 | 0 | 0 | 0 | 0
O=C([O-])c1ccccn1.O=C([O-])c1ccccn1.O=C([O-])c1ccccn1.[Cr+3] [chromium-picolinate] | 105 | 92 | 104 | 95.5 | 103 | 111 | 102 | 113 | 103 | 97.6 | 93 | 95.3 | 103 | 98.7 | 90.1 | 104 | 97.7 | 98.6 | 98.9 | 102 | 102 | 103 | 105 | 99.2 | 101 | > 10 | > 10 | > 10 | > 10 | > 10 | 0 | 0 | 0 | 0 | 0
C[C@@H](CN)CC(=O)O [3-methyl-GABA] | 85.9 | 94.9 | 84.6 | 101 | 88.8 | 95.5 | 104 | 93.4 | 98.3 | 90.9 | 96.1 | 90.5 | 100 | 92.4 | 99 | 102 | 101 | 99.3 | 103 | 94.5 | 100 | 94.2 | 103 | 92.8 | 101 | > 10 | > 10 | > 10 | > 10 | > 10 | 0.1 | 0 | 0 | 0 | 0
CC1=C(CC(=O)O)c2cc(F)ccc2/C1=C\c1ccc([S+](C)[O-])cc1 (stereo not given) [sulindac] | 96 | 100 | 103 | 94.9 | 85.1 | 102 | 113 | 96.5 | 98 | 101 | 117 | 90.2 | 93.3 | 84 | 108 | 101 | 99.2 | 97.4 | 101 | 97.4 | 105 | 102 | 103 | 92.9 | 94.4 | > 10 | > 10 | > 10 | > 10 | > 10 | 0.6 | 0 | 0 | 0 | 0
O=C(NCc1ccncc1)C12CC3CC(C1)CC(c1ccc(Cl)cc1)(C3)C2 | 99.6 | 94.9 | 98.6 | 96 | 92.9 | 104 | 100 | 89 | 92.2 | 89.3 | 96.7 | 107 | 105 | 98 | 93.7 | 97.4 | 99.2 | 101 | 97.8 | 93.5 | 102 | 104 | 104 | 105 | 89.3 | > 10 | > 10 | > 10 | > 10 | > 10 | 0 | 0.5 | 0 | 0 | 0
Clc1cccc(Nc2nnc(-c3ccccc3)c3ccccc23)c1 [MY-5445] | 93 | 104 | 94.7 | 104 | 97.9 | 95.2 | 97.7 | 88.2 | 104 | 104 | 104 | 98.4 | 107 | 104 | 103 | 95 | 98.2 | 95.6 | 99.8 | 101 | 96.6 | 96.7 | 95.8 | 92.1 | 106 | > 10 | > 10 | > 10 | > 10 | > 10 | 0 | 0 | 0 | 0 | 0
